From ChEMBL document CHEMBL1158054, “Cytotoxic monotetrahydrofuran acetogenins from Disepalum plagioneurum” (J Nat Prod, 2006) come the findings set out here.

In the assay the test system is KB. Briefly: Cytotoxicity against human KB cells. In kind it is functional, cell-based.
For orientation: IC50 means the midpoint of a concentration-inhibition curve. Read a low IC50 as higher potency. The compound `CCCCCCCCCCCC[C@@H](O)[C@H]1CC[C@H]([C@H](O)CC(CCCCC(O)CCCCCCCC2=C[C@H](C)OC2=O)OC(C)=O)O1` (some centres undefined) [PLAGIONEURIN A] returned an IC50 of 2.4 nM.
In turn, `CCCCCCCCCCCC[C@H](O)[C@H]1CC[C@H]([C@@H](O)CC(CCCCC(O)CCCCCCCC2=C[C@H](C)OC2=O)OC(C)=O)O1` (some centres undefined) [PLAGIONEURIN B] yielded a 50% inhibitory concentration (IC50) of 6.5 nM. This IC50 lies about 2.7-fold higher than the previous one.
In the case of `CCCCCCCCCCCC[C@@H](O)[C@H]1CC[C@H]([C@H](O)CC(CCCCC(=O)CCCCCCCC2=C[C@H](C)OC2=O)OC(C)=O)O1` (some centres undefined) [PLAGIONEURIN C] it was 26 nM.
In the case of `CCCCCCCCCCCC[C@@H](O)[C@H]1CC[C@H]([C@H](O)CC(CCCCC(=O)CCCC[C@@H](O)CCC2=C[C@H](C)OC2=O)OC(C)=O)O1` (some centres undefined) [PLAGIONEURIN D] it was 2.8 nM; in that of `CCCCCCCCCCCC[C@@H](O)[C@H]1CC[C@H]([C@H](O)CC(CCCCC(=O)CCCCC(O)CCC2=C[C@H](C)OC2=O)OC(C)=O)O1` (some centres undefined) [PLAGIONEURIN E], 2.6 nM.
The compound `CCCCCCCCCCCC[C@@H](O)[C@H]1CC[C@H]([C@H](O)CCCCC(O)CCCC[C@@H](O)CCC2=C[C@H](C)OC2=O)O1` (some centres undefined) [PLAGIONICIN A] returned an IC50 of 2 nM.
To `CCCCCCCCCCCC[C@@H](O)[C@H]1CC[C@@H]([C@@H](O)CCCCC(=O)CCCCC(O)CCC2=C[C@H](C)OC2=O)O1` (some centres undefined) [PLAGIONICIN B] belongs 1400 nM.
`CCCCCCCCCCCC[C@@H](O)[C@H]1CC[C@@H]([C@@H](O)CCCC(O)CCCCCC(O)C(O)CC2=C[C@H](C)OC2=O)O1` (some centres undefined) [PLAGIONICIN C] came in with an IC50 of 6 nM.
In the case of `CCCCCCCCCCCC[C@@H](O)[C@H]1CC[C@H]([C@H](O)CCCC(O)C(O)CCCCC(=O)CCC2=C[C@H](C)OC2=O)O1` (some centres undefined) [PLAGIONICIN D] it was 26 nM.
